Measurements taken from article PMC12531871, “Indole-2-carboxamides Optimization for Antiplasmodial Activity” (ACS Bio & Med Chem Au, 2025).
Values after ≈ are worked out from the molar mass of the structure shown. Values joined by “and” are separate entries in the source; they are usually repeats but may differ in a detail not shown here. Equal values may be shown once. “Also recorded” adds a separate entry of the source. Read-outs that look alike come from different tables or passages of the source.

How the values were obtained:
[1] = eLogD at pH 7.4, miniaturized shake flask method; assay type: physicochemical; settings: for logD at 2 h: 1-octanol/PBS (1:1, v/v), pH 7.4, pH 7.4, miniaturized shake flask method
Procedure: eLogD at pH 7.4 was determined using a miniaturized shake flask method. A solution of a presaturated mixture of 1-octanol and phosphate-buffered saline (PBS) (1:1, v/v) and the test compound (75 μM) was incubated at 25 °C with constant shaking (850 rpm) for 2h. After incubation, the organic and aqueous phases were separated, and samples of each phase were transferred to a plate for dilution. […] The samples were quantitated using LC-MS/MS. The experiment was carried out in duplicate. Propranolol, Amitriptyline, and Midazolam were used as reference standards.

[2] = test system: P. falciparum 3D7 strain (Pf3D7); assay: Antiplasmodial activity against P. falciparum 3D7 blood-stage parasites (SYBR Green, 72 h); assay type: cell-based, Plasmodium falciparum
[3] = Kinetic solubility at pH 7.4; assay type: physicochemical; settings: phosphate-buffered saline, 25 °C, pH 7.4, aqueous buffer, kinetic from dmso stock; read-out: Kinetic solubility (Sol)
Procedure: Kinetic solubility assay was performed using UV–vis detection. […] The samples were filtered using a multiscreen solubility filter plate. The filtrate was diluted by 50% with MeCN. A five-point linearity curve was prepared in PBS/MeCN (1:1, v/v) at 200, 150, 75, 25, and 2.5 μM. Blank, linearity, and test samples (n = 2) were transferred to a UV-readable plate, and the plate was scanned for absorbance. Best-fit calibration curves were constructed using the calibration standards and used to determine the test sample solubility. The experiment was carried out in duplicate. Diethylstilbestrol, Haloperidol, and Diclofenac Sodium were used as reference standards.

[4] = Human liver microsome stability; assay type: in vitro ADME; settings: human microsomal intrinsic clearance; for microsomal CLint at 1 μM: human, pooled human liver microsomes, read-out: hMics, human microsome Clint
Procedure: A solution of the test compounds in phosphate buffer solution (1 μM) was incubated in pooled human or mouse liver microsomes (0.5 mg/mL) for 0, 5, 20, 30, 45, and 60 min at 37 °C in the presence and absence of an NADPH regeneration system (NRS). The tests were conducted by […], India. The reaction was terminated with the addition of ice-cold acetonitrile, containing a […] standard, at designated time points. The sample was centrifuged (4200g) for 20 min at 20 °C and the supernatant was diluted by half in water and then analyzed by LC-MS/MS. The % parent compound remaining, half-life (t 1/2) and clearance (CLint) were calculated using standard methodology. The experiment was carried out in duplicate. Verapamil, diltiazem, phenacetin, and imipramine were used as reference standards.

Rat hepatocyte stability = assay type: in vitro ADME; settings: for R Heps (Clint): rat hepatocyte stability
Procedure: The reaction was terminated with the addition of ice-cold MeCN at designated time points. The samples were then centrifuged (4200 rpm) for 20 min at 20 °C, and the supernatant was half diluted in water and then analyzed using LCMS/MS. The % parent compound remaining, half-life (t 1/2), and clearance (CLint) were calculated using standard methodology. The experiment was carried out in duplicate. Diltiazem, 7-Ethoxy Coumarin, Propranolol, and Midazolam were used as reference standards.

[5] = test system: P. falciparum (3D7 strain) digestive vacuole; assay: Digestive vacuole homeostasis, acridine orange fluorescence; assay type: cell-based, Plasmodium falciparum; settings: 10 μM, 3 min treatment, isolated parasites
Procedure: The sample was incubated for 40 min at 37 °C. […] Fluorescence was measured in a Hitachi F-7000 fluorimeter (Tokyo, Japan) by continuous measurement of the fluorescence (λex = 488 nm; λem = 560 nm) at 37 °C. Experiments were performed in triplicate.

[6] = test system: P. falciparum field isolates from Brazil; assay: Ex vivo drug susceptibility of P. falciparum field isolates; assay type: cell-based, Plasmodium falciparum; settings: Plasmodium falciparum; for EC50: read-out: median EC50 against P. falciparum isolates; for IC50: read-out: median IC50 (range), P. falciparum (7)
[7] = test system: P. vivax field isolates from Brazil; assay: Ex vivo drug susceptibility of P. vivax field isolates; assay type: cell-based; settings: Plasmodium vivax; for EC50: read-out: median EC50 against P. vivax field isolates; for IC50: read-out: median IC50 (range), P. vivax (9)
[8] = test system: synchronized P. falciparum parasites (3D7 strain); assay: P. falciparum asexual blood stage-specificity assay (8 h exposures); assay type: cell-based, Plasmodium falciparum
[9] = test system: P. falciparum Dd2 (chloroquine resistance); assay: Effect of verapamil on inhibitory activity in P. falciparum Dd2; assay type: cell-based; settings: Plasmodium falciparum
P. falciparum 3D7 clone = assay: Ex vivo schizont maturation assay, 3D7 laboratory strain control; assay type: cell-based; settings: Plasmodium falciparum
[10] = test system: P. falciparum 3D7 (chloroquine-sensitive); assay: Effect of verapamil on inhibitory activity in P. falciparum 3D7; assay type: cell-based; settings: Plasmodium falciparum
P. falciparum K1 strain = assay: Antiplasmodial activity against resistant P. falciparum K1; assay type: cell-based; settings: Plasmodium falciparum, 3D7 / K1; resistant K1, in parallel with 3D7; read-out: IC50^K1 ± SD
[11] = Resazurin assay for cytotoxicity in HepG2 cells; assay type: cell-based, human; settings: human, HepG2 cells; HepG2 cell line, 72 h, resazurin
Procedure: (§1) HepG2 cells were trypsinized, counted, and distributed in a 96-well plate at a density of 30,000 cells per well (180 μL). The plate was incubated at 37 °C and 5% CO2 for 24 h. Following incubation, 20 μL of serial dilutions of the tested compounds were added to the wells, with concentrations ranging from 30 to 0.47 μM. The plate was incubated for an additional 72 h at 37 °C and 5% CO2. Untreated cells served as positive controls, while wells containing only medium were used as negative controls. Postincubation, microscopy was employed to determine the highest compound concentration for treatment results. […] Concentration–response curves were generated, and half-maximal inhibitory concentration (CC50) values were determined using nonlinear regression analysis.

P. falciparum Dd2 strain = assay: Antiplasmodial activity against resistant P. falciparum Dd2; assay type: cell-based; settings: Plasmodium falciparum, 3D7 / DD2; resistant Dd2, in parallel with 3D7; read-out: IC50^Dd2 ± SD
HepG2 cells = assay: Resazurin assay for cytotoxicity in HepG2 cells; assay type: cell-based, human; settings: Homo sapiens, HepG2
Procedure: as §1

[12] = test system: P. falciparum NF54 strain; assay: Antiplasmodial activity against P. falciparum NF54 (SYBR Green, 72 h); assay type: cell-based, Plasmodium falciparum; settings: read-out: NF54-IC50
P. falciparum = assay: Parasite reduction ratio (PRR) assay, in vitro rate of kill; assay type: cell-based, Plasmodium falciparum
Source text: This library was designed to maximize chemical diversity and novelty of compounds with physicochemical properties consistent with potential for further development.

[13] = Plasmodium falciparum, 3D7, 72 h, 3D7 strain, 72 h, SYBR Green, read-out: Pf3D7-IC50
[14] = Plasmodium falciparum, 3D7 / DD2, sensitive 3D7, in parallel with K1 and Dd2, read-out: IC50^3D7 ± SD
[15] = 3D7 strain, 72 h, SYBR Green, read-out: Pf3D7-IC50

Row | Structure (SMILES) | logD at 2 h [1] | IC50 [2, 13] | solubility kinetic at 2 h [3] | microsomal CLint at 1 μM [4] | R Heps (Clint) (Rat hepatocyte stability) | IC50 (P. falciparum K1 strain) | IC50 (P. falciparum Dd2 strain) | IC50 [2, 14] | CC50 at 72 h [11] | other results
1 | CCN(CC)CCCC(C)Nc1ccnc2cc(Cl)ccc12 (stereo not drawn) [chloroquine, reference compound] |  |  |  |  |  |  |  |  |  | EC50 [6]: 1200 nM; IC50 [6]: 1200 nM; EC50 [7]: 295 nM; IC50 [7]: 295 nM; timing of peak activity (lowest IC50^8h) in asexual blood stages [8]: peak activity at ring and trophozoite stages; IC50 ([9]; DD2, read-out: IC50^Dd2 (without VP)): 655 nM; IC50 (P. falciparum 3D7 clone; 3D7, read-out: P. falciparum 3D7 IC50): 12 nM; IC50 ([10]; 3D7, read-out: IC50^3D7 (without VP)): 39.8 nM; IC50 ([10]; 3D7, read-out: IC50 in 3D7 strain): 40 to 50 nM
2 | C[C@H]1[C@H](OC(=O)CCC(=O)O)O[C@@H]2O[C@@]3(C)CC[C@H]4[C@H](C)CC[C@@H]1[C@@]24OO3 [artesunate] |  |  |  |  |  |  |  |  |  | IC50 ([6]; 7 clinical isolates, ex vivo): 0.6 nM; EC50 ([6]; ex vivo): 0.6 nM; IC50 ([7]; 9 clinical isolates, ex vivo): 1 nM; EC50 ([7]; ex vivo): 1 nM; IC50 (P. falciparum 3D7 clone; ex vivo assay conditions, 3D7 control, read-out: P. falciparum 3D7 IC50): 8 nM
3 | O=C(c1cc2cc(Cl)ccc2[nH]1)N(Cc1cccnc1)C[C@H]1CCNC1 [6a (S), 5-Chloro-N-(3-pyridylmethyl)-N-[[(3S)-pyrrolidin-3-yl]methyl]-1H-indole-2-carboxamide] | 0.7 | 2000 ± 400 nM | 196 µM (≈ 72.3 µg/mL) | 3 µL/min/mg | 12 μL/min/10^6 |  |  |  | > 30 µM | 

Further lines, with some results ahead:

Row | logD at 2 h [1] | IC50 [2, 13] | solubility kinetic at 2 h [3] | microsomal CLint at 1 μM [4] | R Heps (Clint) (Rat hepatocyte stability) | IC50 (P. falciparum K1 strain) | IC50 (P. falciparum Dd2 strain) | IC50 [2, 14] | Structure (SMILES) | CC50 at 72 h [11] | other results
4 | -0.4 | > 10000 nM | > 1000 µM | 7 µL/min/mg | 4 μL/min/10^6 |  |  |  | COc1ccc2[nH]c(C(=O)N(Cc3cccnc3)CC3CCNC3)cc2c1 (stereo not drawn) [Compound 6d, 5-Methoxy-N-(3-pyridylmethyl)-N-(pyrrolidin-3-ylmethyl)-1H-indole-2-carboxamide] |  | effect on digestive vacuole H+ homeostasis (acridine orange fluorescence) [5]: strong interaction
5 | 2.3 | 370 ± 40 nM | > 200 µM | 36 µL/min/mg | 50 μL/min/10^6 | 0.5 ± 0.3 µM | 0.7 ± 0.2 µM | 300 ± 100 nM | CN1CCC(N(Cc2cccnc2)C(=O)c2cc3cc(Cl)ccc3[nH]2)CC1 [Compound 5t, 5-Chloro-N-(1-methylpiperidin-4-yl)-N-(pyridin-3-ylmethyl)-1H-indole-2-carboxamide] | > 30 µM | 
6 | 0.62 | 1390 nM | 193 µM (≈ 71.2 µg/mL) | 4.6 µL/min/mg | 15 μL/min/10^6 | 6.4 ± 0.1 µM | 9.1 ± 0.1 µM |  | O=C(c1cc2cc(Cl)ccc2[nH]1)N(Cc1cccnc1)CC1CCNC1 (stereo not drawn) [Compound 6a, 5-Chloro-N-(pyridin-3-ylmethyl)-N-(pyrrolidin-3-ylmethyl)-1H-indole-2-carboxamide] | > 30 µM | LogD ([1]; pH 7.4, miniaturized shake flask method): 0.6; IC50 (HepG2 cells): > 20 µM; IC50 [2, 15]: 1400 nM and 1000 nM; hMics, human microsome Clint [4]: 5 µL/min/mg; hepatocyte CLint at 1 μM (Rat hepatocyte stability; pooled rat hepatocytes, rat hepatocyte intrinsic clearance, read-out: Rat hep Clint): 14.6 µL/min/1e6 cells; IC50 ([12]; NF54 strain): 800 ± 400 nM; IC50 ([12]; Plasmodium falciparum, NF54, NF54 strain): 840 nM; Parasite Reduction Rate (PRR), rate of kill (P. falciparum): as fast as that of CQ; also recorded: Fast-acting inhibitor
7 | 1.4 | 220 ± 90 nM | > 200 µM | 17 µL/min/mg | 4 μL/min/10^6 | 2.1 ± 0.2 µM | 1.6 ± 0.3 µM | 300 ± 100 nM | O=C(c1cc2cc(C(F)(F)F)ccc2[nH]1)N(Cc1cccnc1)C1CCNCC1 [Compound 6y, N-(Piperidin-4-yl)-N-(pyridin-3-ylmethyl)-5-(trifluoromethyl)-1H-indole-2-carboxamide] | > 30 µM | 
8 | 1 | ~300 nM | 196 µM | 3 µL/min/mg | 2 μL/min/10^6 | 5.2 ± 0.2 µM | 4.7 ± 0.8 µM | 400 ± 300 nM | Cl.O=C(c1cc2cc(Cl)ccc2[nH]1)N(Cc1cccnc1)C1CCNCC1 [Compound 6x, 5-Chloro-N-(piperidin-4-yl)-N-(pyridin-3-ylmethyl)-1H-indole-2-carboxamide hydrochloride] | > 30 µM | IC50 [2, 15]: 330 ± 80 nM; IC50 ([9]; read-out: IC50^Dd2 (10 μM VP), Dd2, presence of 10 μM verapamil): 560 nM; IC50 ([9]; Dd2, absence of verapamil, read-out: IC50^Dd2 (without VP)): 2940 nM; IC50 ([10]; 3D7, verapamil experiment, read-out: IC50 in 3D7 strain): ~150 nM; IC50 ([10]; read-out: IC50^3D7 (10 μM VP), 3D7, presence of 10 μM verapamil): 214 nM; IC50 ([10]; 3D7, absence of verapamil, read-out: IC50^3D7 (without VP)): 148 nM
